Assay results as given in patent US7955596B2 (priority 2003, dated 2011).
Where two headings read alike, the source gives them in different places.

Key:
B. anthracis strain 34F2 [1] = assay type: cell-based
B. subtilis = details: cited from earlier work
B. anthracis strain 34F2 [2] = assay type: cell-based; remark: listed apart in the source
[3] = system: AI-2-mediated quorum-sensing; details: cited from earlier work
[4] = system: AI-1 and AI-2-mediated quorum-sensing pathways; details: cited from earlier work
[5] = system: B. anthracis protective antigen (PA); assay type: cell-based
[6] = system: B. anthracis strain RBAF140; assay type: cell-based
[7] = system: pag-lacZ (pagA protective antigen gene transcription); assay type: cell-based, B. anthracis
[8] = system: AI-2-mediated quorum-sensing; details: cited from earlier work; remark: listed apart in the source

Row | SMILES | Inhibitory effect compared among furanones 1, 2 and 4 (B. anthracis strain 34F2 [1]) | Biofilm formation (B. subtilis) | Swarming (B. subtilis) | Bacterial growth (OD600) with increasing concentration, log phase cells (B. anthracis strain 34F2 [2]) | AI-2-mediated quorum-sensing [3] | AI-1 and AI-2-mediated quorum-sensing pathways [4] | PA expression (Western blot) [5] | Growth of RBAF140 (OD600) [6] | Expression of pag-lacZ (β-gal activity) [7] | AI-2-mediated quorum-sensing [8] | B. anthracis growth (OD600) (B. anthracis strain 34F2 [1]) | Bacterial growth (OD600) (B. anthracis strain 34F2 [1]) | Bacterial growth (OD600) with increasing concentration (B. anthracis strain 34F2 [1])
1 | O=C1C=C(Br)/C(=C/Br)O1 [furanone 4, 4-bromo-5-(bromomethylene)-2(5H)-furanone] | most potent inhibitory effect |  |  |  |  |  |  |  |  |  |  |  | 
2 | CCCCC1=CC(=C(Br)Br)OC1=O [furanone 2, 3-butyl-5-(dibromomethylene)-2-(5H)-furanone] | least |  |  |  |  |  |  |  |  |  |  |  | 
3 | CCCCC1=C(Br)/C(=C/Br)OC1=O [furanone 1, (5Z)-4-bromo-5-(bromomethylene)-3-butyl-2(5H)-furanone] |  | inhibit | inhibit | increasingly retarded | inhibit | directly inhibit | significant reduction | significant inhibition of growth | significantly reduced | inhibit | dramatically inhibited | completely inhibited | increasingly retarded
